Patent US11445912B2, “Robust myocardial blood oxygen level dependent magnetic resonance imaging with long acting coronary vasodilators” (Cedars-Sinai Medical Center, priority 2015, dated 2022)
Where two headings read alike, the source gives them in different places.

Legend:
[1] = test system: Canines; assay: 13N-ammonia PET myocardial blood flow at rest and post regadenoson, PET/MR (Example 1); type: in vivo
Description: (§1) Canines (n=7) were studied in a PET/MR system. MR acquisitions were used to generate short-axis 2D T2 maps; and the PET acquisitions following ^[…]-ammonia infusion were used to quantify myocardial blood flow (MBF). Initially, 2D T2 maps and PET signals were acquired at rest. Subsequently, regadenoson (2.5 μg/kg) was administrated. T2 maps were acquired at 2- and 10-mins p.r.a and PET signals were acquired at 10-mins p.r.a. Standard deviation (a) of myocardial T2 values was measured at rest, 2- and 10-mins p.r.a from T2 maps and were used to determine Myocardial BOLD Variability (MBV, defined as σT2(stress)/σT2(rest)) at 2- and 10-min p.r.a. Similarly, using the mean T2 values, Myocardial BOLD Response (MBR, defined as T2(stress)/T2(rest)) was computed at 10-mins p.r.a. PET images were analyzed with qPET software to determine MBF and MPR at rest and 10-mins p.r.a and were regressed against MBR.

[2] = test system: Canines; assay: Myocardial BOLD CMR, 2D T2 maps post regadenoson (Example 1); type: in vivo
Description: as §1

[3] = test system: healthy human volunteers; assay: Repeated BOLD CMR, coronary dynamic parameters from mono-exponential model (Example 2); type: in vivo; details: global myocardium
Description: (§2) BOLD images were acquired at different time points before and after regadenoson administration to sample the rest and stress images, respectively. After bolus regadenoson injection, multiple stress images were acquired to sample the coronary dynamics curve for 30 minutes. All stress images were registered to the rest images with a non-rigid motion correction algorithm (Avants B B, Tustison N J, Song G, Cook P A, Klein A, Gee J C. A reproducible evaluation of ANTs similarity metric performance in brain image registration. Neuroimage 2011; 54:2033-44) to correct for motion-induced miss match between acquisitions. Motion corrected images were used to extract the CDPs throughout the stress period using a mono-exponential model (Felmlee M A, Morris M E, Mager D E. Mechanism-based pharmacodynamic modeling. Methods in molecular biology 2012; 929:583-600) (T2(t)=T2o+ΔT2max exp(−t/τ)). A flow chart of the experimental setup is depicted in FIG. 4.
(§3) In healthy volunteers and intact dogs, global CDPs were extracted from the myocardium. Maximum BOLD response was derived with CDPs (MBRCDP=ΔT2max/T2o×100%) and compared with conventional myocardial BOLD response (MBRcon), which was derived as the T2 elevation from rest to 2 minutes after regadenoson administration (MBRconv=[(StressT2^2min/Rest T2)−1)×100%]. In the animals with coronary impairment, CDPs were measured in segmental and pixel-wise manner. Pixel-wised CDPs between remote and affected territories were segmented using SVMs to investigate the capability of separating diseased myocardium from the remote regions. In addition, CDPs were derived from subsets of BOLD images with different starting time points to probe the optimized setup of detecting affected territories. Details of each step are described in the following sections.
(§4) Experimental Subjects and animal preparation: We studied healthy human volunteers (n=6), intact dogs (n=7) and dogs with chronic infarctions (n=1). During imaging studies in animals, all animals were mechanically ventilated and anesthetized with propofol. In the dog with chronic infarction, the animal underwent an open chest ischemia reperfusion protocol (3 hours of ischemia followed by reperfusion), followed by 8-week recovery prior to imaging.
(§5) Image acquisition: Human studies were performed on a 3.0 T clinical MM system (MAGNETOM Verio®, Siemens Healthcare, Erlangen, Germany) and the animals were studied on a 3T whole body PET MR system (Biograph mMR, Siemens Healthcare, Erlangen, Germany). In all subjects, BOLD images were acquired with a commercially available 2D T2 mapping sequence {Giri, 2009 #820}. In all studies, after localization and shimming, rest BOLD images were acquired under baseline followed by a bolus regadenoson injection. Post regadenoson administration, BOLD CMR images were acquired between 2 to 30 minutes after regadenoson injection with an interval of 1-5 minutes depending on the physiological and imaging condition. In the animal with chronic infarction, simultaneous ^13N ammonia PET images were acquired at 2 minutes post regadenoson administration to validate the hyperemic response from regadenoson. In addition, LGE images were acquired to identify the infarcted territories after all BOLD acquisitions were completed. Block representations of imaging protocols are illustrated in FIG. 5. Imaging parameters are listed as the following: T2 mapping: TR/TE=2.9 ms/1.1 ms, iPAT=2, partial Fourier=3/4, FA=35°, BW=1184 Hz/pixel, 86 lines per heartbeat (simulated rate 60/s), trigger pulse=4, FOV=288×360 mm^2, matrix size=154×192, and voxel size=2.5×1.7×6.0 mm^3, T2 preparation (as TEs)=0, 24, 55 ms.
(§6) Image Processing: The series of BOLD images acquired post regadenoson administration were aligned using the advanced normalization tools (ANTS software). Rest images were used as the reference for registration. […]

[4] = test system: intact dogs; assay: as above; type: in vivo; details: global myocardium
Description: as §2, §3, §4, §5, §6

[5] = test system: dog with chronic infarction; assay: Repeated BOLD CMR, coronary dynamic parameters in remote and affected myocardium (Example 2); type: in vivo
Description: as §2, §3, §4
Image acquisition: Human studies were performed on a 3.0 T clinical MM system (MAGNETOM Verio®, Siemens Healthcare, Erlangen, Germany) and the animals were studied on a 3T whole body PET MR system (Biograph mMR, Siemens Healthcare, Erlangen, Germany). In all subjects, BOLD images were acquired with a commercially available 2D T2 mapping sequence {Giri, 2009 #820}. In all studies, after localization and shimming, rest BOLD images were acquired under baseline followed by a bolus regadenoson injection. […]

[6] = test system: dog with chronic infarction; assay: 13N ammonia PET myocardial perfusion reserve in infarcted animal (Example 2); type: in vivo; details: PET at 2 minutes post regadenoson
Description: as §5, with “Imaging parameters are listed as the following: T2 mapping: TR/TE=2.9 ms/1.1 ms, iPAT=2, partial Fourier=3/4, FA=35°, BW=1184 Hz/pixel, 86 lines per heartbeat (simulated rate 60/s), trigger pulse=4, FOV=288×360 mm^2, matrix size=154×192, and voxel size=2.5×1.7×6.0 mm^3, T2 preparation (as TEs)=0, 24, 55 ms.” left out
In addition, simultaneously acquired quantitative PET images were used to derive myocardial perfusion reserve (MPR) with a clinical validated software (QPET, Cedars-Sinai Medical Center, Los Angeles) and to validate the reduced MPR in the infarcted myocardium.

[7] = test system: intact dogs; assay: Repeated BOLD CMR with coronary relaxation model (Example 3); type: in vivo
Description: (§7) Intact (n=7) and infarcted (n=2) dogs were studied in a hybrid PET/MR system. 2D BOLD (T2 maps), LGE and ^13N—NH3 PET images were acquired at rest and at post-regadenoson administration (p.r.a.). T2 maps post-regadenoson administration (p.r.a.) were repeatedly acquired over 30 mins and were registered to T2 maps at rest. These time-dependent T2 maps were then used to model the coronary relaxation as T2(t)=T2o+ΔT2max exp(−t/τ), where T2o, ΔT2max and τ are fit parameters with T2o=T2 at rest; ΔT2max=maximal T2 change from rest; and τ=time constant of coronary relaxation. Maximum BOLD response from CRM was estimated (MBRCRM=ΔT2max/T2o×100%) and compared to conventional myocardial BOLD response [MBRcon=(T2^2min−Rest T2)/Rest T2×100%, where T2^2min=myocardial T2 at 2 min p.r.a and Rest T2=T2 prior to regadenoson injection] using a regression model. In infarcted dogs, affected zones were identified using Late Gadolinium Enhancement (LGE). BOLD contrast-to-noise ratio (CNR) between remote and affected zones (CNR=(μMBRRemote−μMBRAffected)/σMBRRemote, where μ and σ are the mean and std dev) were estimated for MBRCRM and MBRcon and compared. MBRs were validated with perfusion reserve from PET myocardial perfusion reserve (MPR).

[8] = test system: intact dogs; assay: 13N-NH3 PET myocardial perfusion reserve (Example 3); type: in vivo; details: p.r.a
Description: as §7

[9] = test system: infarcted dogs; assay: Repeated BOLD CMR with coronary relaxation model, remote vs affected zones (Example 3); type: in vivo
Description: as §7

[10] = test system: infarcted dogs; assay: 13N-NH3 PET myocardial perfusion reserve, remote vs affected zones (Example 3); type: in vivo
Description: as §7

[11] = cited from earlier work; for terminal half-life: extended vasodilatory state
[12] = 10-min post regadenoson administration, 2.5 μg/kg
[13] = affected (infarcted) myocardium

CNC(=O)c1cnn(-c2nc(N)c3ncn([C@@H]4O[C@H](CO)[C@@H](O)[C@H]4O)c3n2)c1 [regadenoson]
myocardial blood flow relative to rest ([1]; 10-15 minutes post regadenoson infusion): above 2 fold
myocardial blood flow (MBF) [1, 12]: 1.8 ± 0.9 mL/min/g
Myocardial T2 [2, 12]: 40.4 ± 1.7 ms
T2 elevation relative to rest ([2]; 10 min post regadenoson administration): 9%
MBRCDP (ΔT2max/T2o×100%) [3]: 26.5%
MBRcon (T2 elevation from rest to 2 minutes after regadenoson) [3]: 12.0%
ΔT2max (maximum BOLD stimulation amplitude) [3]: 14.7 ms
τ (coronary relaxation time constant) [3]: 35.6 min
MBRCDP (ΔT2max/T2o×100%) [4]: 25.8%
MBRcon (T2 elevation from rest to 2 minutes after regadenoson) [4]: 10.1%
ΔT2max (maximum BOLD stimulation amplitude) [4]: 8.6 ms
τ (coronary relaxation time constant) [4]: 38.5 min
coronary relaxation time constant (τ) ([5]; Remote myocardium): 29.6 min
maximum T2 response (ΔT2max) ([5]; Remote myocardium): 5.4 ms
coronary relaxation time constant (τ) [5, 13]: 54.09 min
maximum T2 response (ΔT2max) [5, 13]: 1.6 ms
myocardial perfusion reserve (MPR) ([6]; infarcted territories): 1.9
myocardial perfusion reserve (MPR) ([6]; remote myocardium): 3.7
MBRCRM (ΔT2max/T2o×100%) [7]: 27±16%
MBRcon ((T2 2min−Rest T2)/Rest T2×100%) ([7]; 2 min p.r.a): 12±6%
ΔT2max (maximal T2 change from rest) ([7]; CRM fit): 14.7 ± 5.8 ms
τ (time constant of coronary relaxation) ([7]; CRM fit): 35.5 ± 26.8 min
PET myocardial perfusion reserve (MPR) [8]: 3.0±0.6
MBRCRM ([9]; Affected region): 1±10%
MBRcon ([9]; Affected region): 5±7%
MBRCRM ([9]; Remote region): 27±6%
MBRcon ([9]; Remote region): 15±5%
MPRaffected (PET) ([10]; Affected region): 1.9±0.7
MPRremote (PET) ([10]; Remote region): 3.7±0.6
terminal half-life [11]: 33 to 108 min
second phase of pharmacological half-life ([11]; in vivo): approximately 30 minutes

Nc1nc(N/N=C/C2CCCCC2)nc2c1ncn2[C@@H]1O[C@H](CO)[C@@H](O)[C@H]1O [binodenoson]
terminal half-life [11]: 10 to 120 min

OCCN(CCO)c1nc(N2CCCCC2)c2nc(N(CCO)CCO)nc(N3CCCCC3)c2n1 [dipyridamole]
terminal half-life ([11]; units printed within the range): 40 to 600 min

CCNC(=O)[C@H]1O[C@@H](n2cnc3c(N)nc(C#CC[C@H]4CC[C@H](C(=O)OC)CC4)nc32)[C@H](O)[C@@H]1O [apadenoson]
terminal half-life [11]: 5 min
